The target in one data set is T1, 5-HT2C receptor (Homo sapiens, UniProt P28335).
T1 construct: expressed in transfected cells; host or cells: CHO cell line
T1 sequence (P28335 33-458): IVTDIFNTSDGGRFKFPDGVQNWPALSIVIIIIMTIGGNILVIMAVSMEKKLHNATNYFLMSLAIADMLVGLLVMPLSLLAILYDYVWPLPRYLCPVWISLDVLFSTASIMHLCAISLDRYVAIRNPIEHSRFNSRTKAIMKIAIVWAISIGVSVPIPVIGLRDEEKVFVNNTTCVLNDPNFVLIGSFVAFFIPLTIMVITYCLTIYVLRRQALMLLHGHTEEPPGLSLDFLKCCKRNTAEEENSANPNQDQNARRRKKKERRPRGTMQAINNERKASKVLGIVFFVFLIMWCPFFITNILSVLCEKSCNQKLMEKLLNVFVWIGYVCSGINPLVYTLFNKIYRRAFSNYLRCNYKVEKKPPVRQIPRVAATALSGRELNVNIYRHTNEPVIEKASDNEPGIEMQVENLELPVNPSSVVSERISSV
Briefly: Radioligand binding to the 5-HT2C receptor ([3H]-5-HT, CHO cell line). As for the experimental part: (§1) 1. Binding to Serotonin Receptors
(§2) The binding of compounds of formula (I) to serotonin receptors was determined in vitro by standard methods. The preparations were investigated in accordance with the assays given hereinafter.
Method (a): For the binding to the 5-HT2C receptor the 5-HT2C receptors were radiolabelled with [^3H]-5-HT. The affinity of the compounds for 5-HT2C receptors in a CHO cell line was determined according to the procedure of D. Hoyer, G. Engel and H.O. Kalkman, European J. Pharmacol., 1985, 118, 13-23.

Another data set concerns the target T2, 5-HT2A receptor (Homo sapiens, UniProt P28223).
T2 construct: expressed in transfected cells; host or cells: CHO cell line
The data set is described as follows: Radioligand binding to the 5-HT2A receptor ([125I]-DOI, CHO cell line). Here is the method: as §1, §2
Method (c): For the binding to the 5-HT2A receptor the 5-HT2A receptors were radiolabelled with [^125I]-DOI. The affinity of the compounds for 5-HT2A receptors in a CHO cell line was determined according to the procedure of D. J. McKenna and S. J. Peroutka, J. Neurosci., 1989, 9/10, 3482-90.

The next data set concerns the target T3, h5-HT2C (Homo sapiens, UniProt P28335).
T3 construct: expressed in transfected cells; host or cells: CHO cells
T3 sequence (P28335 33-458): T1 sequence (P28335 33-458)
The data set is described as follows: Functional activity, FLIPR calcium assay in CHO cells expressing h5-HT2C. The settings on record: for Emax: CHO, read-out: h5-HT2C Relative Efficacy; for EC50: FLIPR, CHO cells. The class given is cell-based. As for the experimental part:
(§3) The functional activity of compounds of formula (I) was assayed using a Fluorimetric Imaging Plate reader (FLIPR) in the following manner.
(§4) CHO cells expressing either the h5-HT2C or h5-HT2A receptors were counted and plated into standard 96 well microtitre plates before the day of testing to give a confluent monolayer. The following day the cells were dye loaded with the calcium sensitive dye Fluo 3-AM by incubation with serum free culture maintenance media containing pluronic acid and Fluo 3-AM dissolved in DMSO at 37° C. in a CO2 incubator at 95% humidity for approximately 90 minutes. Unincorporated dye was removed by washing with Hanks balanced salt solution containing 20 mM HEPES and 2.5 mM probenecid (the assay buffer) using an automated cell washer to leave a total volume of 100 μL/well.
(§5) The drug (dissolved in 50 μL of assay buffer) was added at a rate of 70 μL/sec to each well of the FLIPR 96 well plate during fluorescence measurements. The measurements are taken at 1 sec intervals and the maximum fluorescent signal was measured (approx 10-15 secs after drug addition) and compared with the response produced by 10 μM 5-HT (defined as 100%) to which it is expressed as a percentage response (relative efficacy). Dose response curves were constructed using Graphpad Prism (Graph Software Inc.).

In the next data set the target is T4, human 5-HT2B receptors (Homo sapiens, UniProt P41595).
T4 construct: expressed in transfected cells; host or cells: CHO cell line
Briefly: Radioligand binding to the 5-HT2B receptor ([3H]-5-HT, CHO cell line). As for the experimental part:
as §1, §2
Method (b): For the binding to the 5-HT2B receptor the 5-HT2B receptors were radiolabelled with [^3H]-5-HT. The affinity of the compounds for human 5-HT2B receptors in a CHO cell line was determined according to the procedure of K. Schmuck, C. Ullmer, P. Engels and H. Lubbert, FEBS Lett., 1994, 342, 85-90.

In another data set the target is T5, h5-HT2A receptors (Homo sapiens, UniProt P28223).
T5 construct: expressed in transfected cells; host or cells: CHO cells
The data set is described as follows: Functional activity, FLIPR calcium assay in CHO cells expressing h5-HT2A. The class given is cell-based. The settings on record: for Emax: CHO, read-out: h5-HT2A Relative Efficacy; for EC50: FLIPR, CHO cells. Here is the method:
as §3, §4, §5

[1] abbreviates: maximum fluorescent signal compared with 10 μM 5-HT (defined as 100%).
Setting [2] is: [3H]-5-HT, CHO cell line, read-out: Ki(2C).
Setting [3] is: [125I]-DOI, CHO cell line, read-out: Ki(2A).
[4] abbreviates: [3H]-5-HT, human receptor, CHO cell line, read-out: Ki(2B).

Counter-ions that a name gives are not always drawn. Like-named read-outs stand apart in the source and are kept apart here.

T5 sequence (P28223 whole entry): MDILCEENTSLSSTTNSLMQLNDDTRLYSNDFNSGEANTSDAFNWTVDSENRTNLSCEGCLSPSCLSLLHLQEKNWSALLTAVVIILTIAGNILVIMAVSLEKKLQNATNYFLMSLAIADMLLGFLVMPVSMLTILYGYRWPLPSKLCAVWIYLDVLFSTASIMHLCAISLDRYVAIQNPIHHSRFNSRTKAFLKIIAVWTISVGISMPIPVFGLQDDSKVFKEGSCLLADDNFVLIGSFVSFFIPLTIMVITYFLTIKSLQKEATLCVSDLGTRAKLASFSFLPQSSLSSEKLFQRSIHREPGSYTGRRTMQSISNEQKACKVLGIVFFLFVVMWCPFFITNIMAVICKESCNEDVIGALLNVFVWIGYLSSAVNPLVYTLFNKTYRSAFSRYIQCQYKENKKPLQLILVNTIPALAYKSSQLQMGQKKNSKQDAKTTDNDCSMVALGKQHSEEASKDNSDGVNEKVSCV
T2 sequence (P28223 whole entry): as above
T4 sequence (P41595 whole entry): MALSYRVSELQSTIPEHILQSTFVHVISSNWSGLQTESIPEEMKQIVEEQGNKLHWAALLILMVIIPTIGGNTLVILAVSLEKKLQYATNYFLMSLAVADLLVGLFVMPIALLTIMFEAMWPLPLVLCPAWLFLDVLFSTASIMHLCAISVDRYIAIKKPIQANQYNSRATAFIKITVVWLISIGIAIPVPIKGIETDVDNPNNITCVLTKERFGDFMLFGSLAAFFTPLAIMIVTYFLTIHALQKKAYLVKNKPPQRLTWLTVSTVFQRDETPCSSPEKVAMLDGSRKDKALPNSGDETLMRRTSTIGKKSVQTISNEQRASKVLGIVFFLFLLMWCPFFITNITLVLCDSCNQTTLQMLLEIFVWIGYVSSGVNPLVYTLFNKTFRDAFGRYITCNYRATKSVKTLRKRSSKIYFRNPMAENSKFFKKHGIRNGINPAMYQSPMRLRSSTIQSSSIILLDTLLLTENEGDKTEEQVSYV

`C[C@H](N)Cn1c2c(c3cc(F)ccc31)CCC2` (as salt: fumarate) (hydrate or solvate) [Example 2, (S)-1-(7-fluoro-1,2,3,4-tetrahydrocyclopent[b]indol-4-yl)-2-propylamine] gave a melting point of 161 to 162 °C.
Take `C[C@H](N)Cn1c2c(c3c(Cl)cccc31)CCC2` (as salt: fumarate) [Example 4, (S)-1-(8-chloro-1,2,3,4-tetrahydrocyclopent[b]indol-4-yl)-2-propylamine]: the melting point was 172 to 173 °C (dec.).
Consider `COc1ccc2c3c(n(C[C@H](C)N)c2c1)CCC3` (as salt: fumarate) [Example 11, (S)-1-(6-methoxy-1,2,3,4-tetrahydrocyclopent[b]indol-4-yl)-2-propylamine], for which the melting point came out at 182 °C.
Take `COc1cc2c(cc1F)c1c(n2C[C@H](C)N)CCC1` (as salt: fumarate) [Example 37, (S)-1-(7-fluoro-6-methoxy-1,2,3,4-tetrahydrocyclopent[b]indol-4-yl)-2-propylamine]: the melting point was 213 °C (dec.).
As for `C[C@H](N)Cn1c2c(c3ccccc31)CCC2` (as salt: hydrochloride) (hydrate or solvate) [Example 14, (S)-1-(1,2,3,4-tetrahydrocyclopent[b]indol-4-yl)-2-propylamine], the melting point was 233 °C.
`C[C@H](N)Cn1c2c(c3c(Cl)c(F)ccc31)CCC2` (as salt: hydrochloride) (hydrate or solvate) [Example 18, (S)-1-(8-chloro-7-fluoro-1,2,3,4-tetrahydrocyclopent[b]indol-4-yl)-2-propylamine] yielded a melting point of 252 to 253 °C.
Compound `C[C@H](N)Cn1c2c(c3c(Cl)cc(Cl)cc31)CCC2` (as salt: hydrochloride) (hydrate or solvate) [Example 26] had a melting point of 258 °C.
Consider `C[C@@H](N)Cn1c2c(c3ccccc31)CCC2` (as salt: hydrochloride) (hydrate or solvate) [Example 30, (R)-1-(1,2,3,4-tetrahydrocyclopent[b]indol-4-yl)-2-propylamine], for which the melting point was 225 to 231 °C (dec.).
`C[C@H](N)Cn1c2c(c3ccc(F)cc31)CCC2` (as salt: hydrochloride) (hydrate or solvate) [Example 31] showed a melting point of 215 °C.
`CCSc1ccc2c3c(n(C[C@H](C)N)c2c1)CCC3` (as salt: hydrochloride) [Example 27]: the melting point was in the range of 115 to 119 °C.
With `C[C@H](N)Cn1c2c(c3c(F)c(F)ccc31)CCC2` [Example 1, (S)-1-(7,8-Difluoro-1,2,3,4-tetrahydrocyclopent[b]indol-4-yl)-2-propylamine fumarate], the Ki on 5-HT2C receptor amounted to 65 nM; on 5-HT2A receptor, 122 nM; at human 5-HT2B receptors, 40 nM. Besides, the figures for the Emax at h5-HT2C (setting [1]) and at h5-HT2A receptors (setting [1]) were 77% and 0%, respectively. In addition, the EC50 at h5-HT2C was 272 nM.
As for `C[C@H](N)Cn1c2c(c3cc(F)ccc31)CCC2` [Example 2, (S)-1-(7-fluoro-1,2,3,4-tetrahydrocyclopent[b]indol-4-yl)-2-propylamine], the Emax came out at 85% on h5-HT2C (setting [1]) and 0% at h5-HT2A receptors (setting [1]). Also, at h5-HT2C, the EC50 is 347 nM.
For `C[C@H](N)Cn1c2c(c3c(Cl)cccc31)CCC2` [Example 4, (S)-1-(8-chloro-1,2,3,4-tetrahydrocyclopent[b]indol-4-yl)-2-propylamine], the Emax at h5-HT2C (setting [1]) was 65%; at h5-HT2A receptors (setting [1]) it was 60%. The EC50 at h5-HT2C was determined as 179 nM.
As for `COc1ccc2c3c(n(C[C@H](C)N)c2c1)CCC3` [Example 11, (S)-1-(6-methoxy-1,2,3,4-tetrahydrocyclopent[b]indol-4-yl)-2-propylamine], the Ki on 5-HT2C receptor came to 63 nM; at 5-HT2A receptor, 314 nM; on human 5-HT2B receptors it was 210 nM. For the same compound, the Emax at h5-HT2C (setting [1]) turned out to be 85%; on h5-HT2A receptors (setting [1]), 25%. The EC50 at h5-HT2C turned out to be 89 nM; at h5-HT2A receptors, 1690 nM.
Regarding `C[C@H](N)Cn1c2c(c3ccccc31)CCC2` [Example 14, (S)-1-(1,2,3,4-tetrahydrocyclopent[b]indol-4-yl)-2-propylamine], the Ki at 5-HT2C receptor amounted to 64 nM; on 5-HT2A receptor it was 375 nM; on human 5-HT2B receptors, 180 nM. Further, the results for the Emax on h5-HT2C (setting [1]) and at h5-HT2A receptors (setting [1]) were 80% and 48%, respectively. The EC50 was determined as 252 nM at h5-HT2C and 6250 nM on h5-HT2A receptors.
`C[C@H](N)Cn1c2c(c3cc(F)c(Cl)cc31)CCC2` [Example 16]: the Emax was found to be 86% on h5-HT2C (setting [1]) and 0% at h5-HT2A receptors (setting [1]). The EC50 at h5-HT2C is 307 nM.
Take `C[C@H](N)Cn1c2c(c3c(Cl)c(F)ccc31)CCC2` [Example 18, (S)-1-(8-chloro-7-fluoro-1,2,3,4-tetrahydrocyclopent[b]indol-4-yl)-2-propylamine]: the results for the Emax on h5-HT2C (setting [1]) and on h5-HT2A receptors (setting [1]) were 75% and 63%, respectively. Also, the EC50 on h5-HT2C is 36 nM; at h5-HT2A receptors it was 2100 nM.
`C[C@H](N)Cn1c2c(c3c(Cl)cc(Cl)cc31)CCC2` [Example 26]: the Ki on 5-HT2C receptor (setting [2]) was 106 nM; at 5-HT2A receptor (setting [3]), 144 nM; at human 5-HT2B receptors (setting [4]), 127 nM.
As to `CCSc1ccc2c3c(n(C[C@H](C)N)c2c1)CCC3` [Example 27], the Ki was found to be 141 nM on 5-HT2C receptor (setting [2]), 545 nM at 5-HT2A receptor (setting [3]) and 496 nM at human 5-HT2B receptors (setting [4]).
Regarding `C[C@@H](N)Cn1c2c(c3ccccc31)CCC2` [Example 30, (R)-1-(1,2,3,4-tetrahydrocyclopent[b]indol-4-yl)-2-propylamine], the Ki on 5-HT2C receptor stood at 19 nM; at 5-HT2A receptor, 48 nM; at human 5-HT2B receptors it was 31 nM. Besides, the Emax worked out at 72% at h5-HT2C (setting [1]) and 43% at h5-HT2A receptors (setting [1]). Further, the EC50 at h5-HT2C was found to be 90 nM; on h5-HT2A receptors it was 361 nM.
As for `C[C@H](N)Cn1c2c(c3ccc(F)cc31)CCC2` [Example 31], the Ki on 5-HT2C receptor came to 65 nM; at 5-HT2A receptor (setting [3]), 550 nM; on human 5-HT2B receptors (setting [4]) it was 161 nM.
Take `CC(N)Cn1c2c(c3cc(F)c(F)cc31)CCC2` (stereo not shown) [Example 33]: the results for the Ki on 5-HT2C receptor, at 5-HT2A receptor and at human 5-HT2B receptors were 63 nM, 233 nM and 152 nM, respectively. In addition, the Emax stood at 81% at h5-HT2C (setting [1]) and 22% at h5-HT2A receptors (setting [1]). For the same compound, the EC50 at h5-HT2C turned out to be 316 nM.
Regarding `COc1c(F)ccc2c1c1c(n2C[C@H](C)N)CCC1` [Example 42, (S)-1-(7-fluoro-8-methoxy-1,2,3,4-tetrahydrocyclopent[b]indol-4yl)-2-propylamine], the Emax at h5-HT2C (setting [1]) came to 74%; on h5-HT2A receptors (setting [1]) it was 51%. The values for the EC50 on h5-HT2C and at h5-HT2A receptors were 87 nM and 805 nM, respectively.
Consider “(R)-1-(7-Fluoro-1,2,3,4-tetrahydro-6-methoxy-cyclopent[b]indol-4-yl)-2-propylamine, hemifumarate [Example 36]”, for which the EC50 on h5-HT2C is 189 nM; on h5-HT2A receptors, 1340 nM. Further, the “h5-HT2C Relative Efficacy” value at h5-HT2C (setting [1]) worked out at 64%. In addition, the “h5-HT2A Relative Efficacy” value at h5-HT2A receptors (setting [1]) came to 25%.

A word on the melting point: it is the temperature, or range, at which the solid turns liquid. Usually Ki stands for the equilibrium dissociation constant of an inhibitor or competing ligand from its target. A word on the EC50: it is the concentration at which the effect is half-maximal.
